“And” between values parts separate entries of the source, which are not always exact repeats. Equal entries are not always repeated.
Columns and labels:
[1] = set-up: method as in PMID 15668111; settings: 37 °C; cited from earlier work
[2] = In vivo dose (AUC) in rat calculated from measured Hb adduct levels after AA exposure; settings: from Hb adduct levels
Protocol: The in vivo dose or AUC of a compound in blood is the concentration integrated over time (Eq. 2).2 AUC=∫tC(t)dt A method to infer the AUC of an electrophilic compound or metabolite from measured Hb adduct levels (A) has been developed and established by our research group for quantitative monitoring of exposure in humans or for application in animal studies[1],[3]. When Hb adduct formation is measured a short time after a single acute exposure, or after incubation in vitro, AUC can be calculated using Eq. 3. This equation is based on A, and the second-order reaction rate constant (kNu) for the formation of an adduct to a nucleophilic site in Hb from the concerned electrophile.3 AUC=A/kNu
For calculating the daily AUC from a longer duration of exposure, the daily adduct level increments (a) have to be calculated considering the accumulation and elimination of adducts due to lifetime of the erythrocytes (t er). […] From continuous or subchronic exposure when the exposure time (t) is shorter than t er, the accumulated adduct level is calculated [a × t × (1 − t/2t er)][49].
For in vivo data on AUC of AA and of GA from AA exposure in rats, a study on short-term oral exposure of rats was used[24]. […] Blood samples were collected and AA- and GA-adducts to N-terminal valine in Hb were measured as described above, and recalculated to the daily increment of the adduct level. […]

[3] = Parallelogram approach estimation of AUC-GA in human; settings: predicted ratio × measured human AUC-AA
Text: The parallelogram approach representing inter-species comparison of in vivo dose and the use of in vitro data is shown in Fig. 1 for the metabolic transformation of R to RX, which is referred to as the metabolism of AA to GA in the present study. This figure can be formulated to Eq. 1 as described in Methods (cf. Eq. 5), where the superscripts H and R represent the corresponding AUC or EE in human and rat, respectively.1 AUC^H−RX/AUC^R−RX=EE^H−R→RX/EE^H−RXel/EE^R−R→RX/EE^R−RXel×AUC^H−R/AUC^R−R
The in vitro data on enzyme kinetics from human and rat (Table 1), and the in vivo data on AUC of AA and of GA in rat (Table 2) were used to calculate the predictive value of AUC-GA per AUC-AA in human, according to the parallelogram approach (cf. Methods, Eq. 5). This was calculated to 0.087 (Table 3). […] It was observed that the AUC-GA in human and rat predicted by the parallelogram approach and from measured Hb adduct levels, respectively, differed with about a factor of 3 (cf. Tables 2 and 3). This difference is within the variability range of AUC-GA for respective species calculated from different in vivo studies. […]

[4] = set-up: method as in Doerge at al. (2005); settings: male F344 rats, single dietary exposure ca. 100 µg AA/kg bw, n = 7, direct measurements; ref Doerge at al. (2005); cited from earlier work

With `NC(=O)C1CO1` (racemic) [GA, rac-Glycidamide] as the compound, how does the “half-life of hydrolysis of GA in an aqueous solution” value [1] read?
The value was 43 h.

And the “rate of hydrolysis of GA in an aqueous solution” value [1]?
The value was 0.016 h⁻¹.

What about the “ratio between species (rat-to-human) of AUC-GA per AUC-AA” value [2] of the same compound?
Its value is 2.3.

And the “AUC-GA estimated from the parallelogram approach” value [3]?
The value was 18 nM·h/μg AA per kg bw and 18^a nM·h/μg AA per kg bw.

What about the AUC-GA [4] of the same compound?
The AUC-GA was 19 nM·h/ μg AA per kg bw.
